Reference: patent US12458660B2, “Methods of attenuating an immune response by inhibition of BFL1” (CHILDREN'S HOSPITAL MEDICAL CENTER, priority 2018, dated 2025)

Key:
[1] = target: T1, BCL2A1 (A1) - NOXA binding (Mus musculus, UniProt Q07440, C113S/P104K); assay: Competition fluorescence polarization assay, displacement of FITC-labeled mNOXA peptide from A1
T1 construct: A1 residues 1-152 (P104K, C113S) were expressed in the BL21 strain of Escherichia coli; hexa-His-MBP (cleaved yes); made in house; host or cells: Escherichia coli BL21
T1 sequence (Q07440 1-152 P104K/C113S): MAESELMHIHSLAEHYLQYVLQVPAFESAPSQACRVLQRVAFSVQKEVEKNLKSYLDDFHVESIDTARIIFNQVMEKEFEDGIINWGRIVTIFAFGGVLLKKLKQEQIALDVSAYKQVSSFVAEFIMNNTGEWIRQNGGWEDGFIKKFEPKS
Description: Representative compounds were additionally tested for inhibition of BH3 binding through competition-based fluorescence polarization (FP) assays. These assays were carried out using fluorescently labeled NOXA peptide which binds within the BH3-binding groove. The FP assay measures the tumbling rate of the labeled NOXA peptide. When NOXA is bound to A1, its rate of tumbling is low (and FP is high), whereas an effective inhibitor compound will displace NOXA, causing a fast rate of tumbling (and low FP value). Initially, a single high-dose experiment was performed with each compound using 100 μM of compound with BCL2A1 and FITC-NOXA, to observe the relative inhibition of the A1-NOXA interaction (FIG. 17B).
These compounds and any that were three standard deviations or more above the thermal shift controls in the DSF assays, along with those that were initially derived from early compounds with reasonable IC50 values, were tested in a dose-response experiment. To this end, 30 putative P2 inhibitors and 44 putative P4 inhibitors had their IC50 values determined. Of the dose responses, there was a surprising enrichment of putative P4 inhibitors among those that had IC50 values less than 50 μM. […] The following linear equation was used in the calculations (Tallarida et al., 2011),
Compounds were additionally tested for specificity of binding by displacement of FITC-labeled mouse NOXA (mNoxa; Peptide 2.0) peptide via fluorescence polarization assay (FP). FP assays were performed in two steps: single-point high-concentration compounds and dose response of fluorescence polarization hits. A1 was added at 3 μM to 100 μM of each compound in 20 mM Tris pH 7, 500 mM NaCl, 0.005% Tween-20 buffer. After addition of 375 nM labeled mNOXA, 96-well plates were incubated overnight at 20° C. in the dark to achieve equilibrium before fluorescence polarization was measured with a Biotek Synergy H2. Autofluorescent compounds and fluorescent quenching compounds were corrected via ratiometric correction as described by Shapiro et al., 2009.
Dose response curves were measured by adding 3 μM A1 to a serial two-fold dilution series of each compound ranging from 400 μM to 781 nM in 20 mM Tris pH 7, 500 mM NaCl, 0.005% Tween-20 buffer. Some compounds were further tested to assess the accuracy of these two-fold dilutions with serial 1.33-fold dilutions. A1, compounds, buffer and lastly, 375 nM FITC-labeled mNOXA were added to each well and incubated in the dark at 20° C. overnight to achieve equilibrium, followed by measurement of polarization. All dose responses were performed in triplicate.

primary splenocyte cells = assay: In vitro apoptosis assay in activated primary splenocyte cells (trypan blue); format: cell-based, mice; conditions: WT and Bax/Bak-/- splenocytes, +/- polybrene
Description: An in vitro apoptosis assay utilizing primary splenocyte cells was used as a model system. In this system, compounds were added to wild-type primary splenocyte cells from mice that had been cultured and activated over four days. […] Mice deficient in Bax/Bak are unable to undergo intrinsic apoptosis due to the lack of the executioners in the pathway. […] Polybrene™ (hexadimethrine bromide) is a transfection reagent used to assist negatively-charged DNA molecules in traversal of the plasma membrane. Polybrene was included here to test whether it would improve the activity of negatively charged compounds.
Single-cell suspensions from spleen were generated by maceration through a 100 μm nylon mesh followed by LympholyteM ficoll gradient separation (Cedarlane Labs, Burlington, NC). Purified cells were then cultured on anti-CD3 coated (3 μg/mL, coated overnight, Biolegend, San Diego, CA) six-well plates in the presence of soluble anti-CD28 (2 μg/mL, Bio X Cell, West Lebanon, NH) and IL-2 (10 ng/mL, R&D Systems, Inc., Minneapolis, MN) in RPMI media (Life Technologies, Carlsbad, CA) for 24 hours at 37° C. Cells were then washed and cultured again in IL-2 (10 ng/mL) for 24 hours at 37° C. […]

Structure (SMILES): Cc1ccc(NC(=O)c2cc3ccccc3c(/N=N/c3cc(S(=O)(=O)O)ccc3O)c2O)c(C)c1 [Compound 1.001]
- inhibition of Noxa binding in FP assays [1]: strong inhibition
- additivity for inhibition of A1-Noxa binding, checkerboard assay ([1]; NSC-97318 (P2) with NSC-45195 (P4), wide range of concentrations): low level additivity
- effect on cell survival (primary splenocyte cells): some effect
